Measured values published in ChEMBL document CHEMBL1949611, “Functional characterization of rat glutaryl-CoA dehydrogenase and its comparison with straight-chain acyl-CoA dehydrogenase” (Bioorg Med Chem Lett, 2011).
Calls of active or inactive are those of the source. The rule behind the calls is not given here.

Columns and labels:
Rattus norvegicus [1] = organism: Rattus norvegicus; assay: Ratio of Kcat to Km for rat glutaryl-co A dehydrogenase expressed in Escherichia coli BL21
Rattus norvegicus [2] = organism: Rattus norvegicus; assay: Activity of rat glutaryl-co A dehydrogenase expressed in Escherichia coli BL21
Rattus norvegicus [3] = organism: Rattus norvegicus; assay: Activity of rat glutaryl-co A dehydrogenase E370Q mutant expressed in Escherichia coli BL21
Rattus norvegicus [4] = organism: Rattus norvegicus; assay: Activity of rat glutaryl-co A dehydrogenase E370A mutant expressed in Escherichia coli BL21
Rattus norvegicus [5] = organism: Rattus norvegicus; assay: Time-dependent inhibition of rat glutaryl-co A dehydrogenase after 30 mins by spectrophotometry
Rattus norvegicus [6] = organism: Rattus norvegicus; assay: (§1) Inhibition of rat glutaryl-co A dehydrogenase by spectrophotometry; conditions: for inhibition: TDE = time-dependent effect
[7] = as §1
Rattus norvegicus [8] = organism: Rattus norvegicus; assay: Irreversible inhibition of rat glutaryl-co A dehydrogenase by dialysis method
Rattus norvegicus [9] = organism: Rattus norvegicus; assay: Irreversible inhibition of rat glutaryl-co A dehydrogenase by HPLC analysis
Rattus norvegicus [10] = organism: Rattus norvegicus; assay: Time-dependent inhibition of rat glutaryl-co A dehydrogenase after 160 mins by spectrophotometry

Row | Compound | kcat/Km (10'-3/microM/s) (Rattus norvegicus [1]) | Km (Rattus norvegicus [2]) | Vmax (Rattus norvegicus [2]) | kcat (Rattus norvegicus [2]) | kcat/Km (Rattus norvegicus [1]) | further results
1 | CCCC/C=C\CC(=O)SCCNC(=O)CCNC(=O)C(O)C(C)(C)COP(=O)(O)OP(=O)(O)OC[C@H]1O[C@@H](n2cnc3c(N)ncnc32)[C@H](O)[C@@H]1OP(=O)(O)O (stereo not given in full) | 1.3 | 66 µM | 113 nmol/mg/min | 0.083 s⁻¹ | – | –
2 | CC/C=C\CC(=O)SCCNC(=O)CCNC(=O)C(O)C(C)(C)COP(=O)(O)OP(=O)(O)OC[C@H]1O[C@@H](n2cnc3c(N)ncnc32)[C@H](O)[C@@H]1OP(=O)(O)O (stereo not given in full) | 4.9 | 49 µM | 331 nmol/mg/min | 0.24 s⁻¹ | – | kcat (Rattus norvegicus [3]): 0.0021 s⁻¹; kcat (Rattus norvegicus [4]): 0.00078 s⁻¹
3 | CCCCCC/C=C/CC(=O)SCCNC(=O)CCNC(=O)C(O)C(C)(C)COP(=O)(O)OP(=O)(O)OC[C@H]1O[C@@H](n2cnc3c(N)ncnc32)[C@H](O)[C@@H]1OP(=O)(O)O (stereo not given in full) | – | 74 µM | 27 nmol/mg/min | 0.02 s⁻¹ | 2.7 ×10⁻⁴ /µM/s | –
4 | CCCCCCCC(=O)SCCNC(=O)CCNC(=O)C(O)C(C)(C)COP(=O)(O)OP(=O)(O)OC[C@H]1O[C@@H](n2cnc3c(N)ncnc32)[C@H](O)[C@@H]1OP(=O)(O)O (stereo not given in full) | – | 28 µM | – | 1.1 s⁻¹ | – | kcat/Km (10'-2/microM/s) (Rattus norvegicus [1]): 3.9
5 | CCCCCC#CC(=O)SCCNC(=O)CCNC(=O)C(O)C(C)(C)COP(=O)(O)OP(=O)(O)OC[C@H]1O[C@@H](n2cnc3c(N)ncnc32)[C@H](O)[C@@H]1OP(=O)(O)O (stereo not given in full) | – | – | – | – | – | inhibition (Rattus norvegicus [5]): 2%; Kinact (Rattus norvegicus [6]): 0.2 min⁻¹; inhibition (Rattus norvegicus [6]): tde; Ki [7]: 18 µM; inhibition (Rattus norvegicus [8]): Active; inhibition (Rattus norvegicus [9]): Active
6 | CC/C=C/CC(=O)SCCNC(=O)CCNC(=O)C(O)C(C)(C)COP(=O)(O)OP(=O)(O)OC[C@H]1O[C@@H](n2cnc3c(N)ncnc32)[C@H](O)[C@@H]1OP(=O)(O)O (stereo not given in full) | 1.9 | 51 µM | 136 nmol/mg/min | 0.099 s⁻¹ | – | –
7 | CCCCCC/C=C\CC(=O)SCCNC(=O)CCNC(=O)C(O)C(C)(C)COP(=O)(O)OP(=O)(O)OC[C@H]1O[C@@H](n2cnc3c(N)ncnc32)[C@H](O)[C@@H]1OP(=O)(O)O (stereo not given in full) | – | 88 µM | 62 nmol/mg/min | 0.046 s⁻¹ | 5.2 ×10⁻⁴ /µM/s | –
8 | CCC/C=C/C#CC(=O)SCCNC(=O)CCNC(=O)C(O)C(C)(C)COP(=O)(O)OP(=O)(O)OC[C@H]1O[C@@H](n2cnc3c(N)ncnc32)[C@H](O)[C@@H]1OP(=O)(O)O (stereo not given in full) | – | – | – | – | – | Kinact (Rattus norvegicus [6]): 0.024 min⁻¹; inhibition (Rattus norvegicus [6]): tde; Ki [7]: 43 µM; inhibition (Rattus norvegicus [8]): Active; inhibition (Rattus norvegicus [9]): Active; inhibition (Rattus norvegicus [10]): 20%
9 | CCCCCC(=O)SCCNC(=O)CCNC(=O)C(O)C(C)(C)COP(=O)(O)OP(=O)(O)OC[C@H]1O[C@@H](n2cnc3c(N)ncnc32)[C@H](O)[C@@H]1OP(=O)(O)O (stereo not given in full) | – | 20 µM | – | 2.1 s⁻¹ | 110000 M⁻¹ s⁻¹ | –
10 | CCCC/C=C/CC(=O)SCCNC(=O)CCNC(=O)C(O)C(C)(C)COP(=O)(O)OP(=O)(O)OC[C@H]1O[C@@H](n2cnc3c(N)ncnc32)[C@H](O)[C@@H]1OP(=O)(O)O (stereo not given in full) | – | 58 µM | 56 nmol/mg/min | 0.041 s⁻¹ | 7.1 ×10⁻⁴ /µM/s | –
11 | CCCC(=O)SCCNC(=O)CCNC(=O)C(O)C(C)(C)COP(=O)(O)OP(=O)(O)OC[C@H]1O[C@@H](n2cnc3c(N)ncnc32)[C@H](O)[C@@H]1OP(=O)(O)O (stereo not given in full) | – | 12 µM | – | 2.7 s⁻¹ | 230000 M⁻¹ s⁻¹ | –
12 | CCCCCCCCCC(=O)SCCNC(=O)CCNC(=O)C(O)C(C)(C)COP(=O)(O)OP(=O)(O)OC[C@H]1O[C@@H](n2cnc3c(N)ncnc32)[C@H](O)[C@@H]1OP(=O)(O)O (stereo not given in full) | 3.3 | 54 µM | – | 0.18 s⁻¹ | – | –
